Test results: patent publication US20130029928A1 (priority 2010, published 2013)
Read-outs that look alike come from different tables or passages of the source.

Assay: Phase I study CXR1002-001: plasma pharmacokinetics (LC-MS/MS)
Type: in vivo, human
Details: human, plasma, oral; for concentration at 528 h / concentration at 528 hr: 528 hr (Day 23); for concentration at 696 h: 696 hr (Day 30); for concentration at 840 h: 840 hr (Day 36)
Source text: PK samples, PD (fasting) samples, blood glucose, and blood triglyceride samples, were taken over a 6-week period.
Dose limiting toxicity (DLT) will be based on the toxicity assessments over the first 3-week period of the repeat dosing schedule. PK samples (single blood sample) were taken on the following basis: • Every 6 weeks during the repeat dosing phase • If dosing is interrupted or stopped, samples will be taken at intervals according to patient convenience • PK sampling for safety evaluation may take place at any time, as clinically indicated
Plasma samples were collected after the single 50 mg dose at the following timepoints: Pre-dose, and then 0.25, 0.5, 0.75, 1, 1.5, 2, 3, 4, 6, 24, 48, and 72 hours after administration and then once weekly at weeks 2, 3, 4, 5, and 6 (days 8, 15, 22, 29, and 36). For patients treated with the weekly repeat dose, plasma samples were collected at the following timepoints: Pre-dose and then 2, 3, 4 and 24 hours after administration for a total of 6 weeks. Thereafter a single sample was collected every 6 weeks for monitoring of exposure during long term treatment. Plasma samples were processed at site and stored at −80° C. prior to batch shipment to the analytical laboratory.

[1] = 100 mg, Patient 005 Dose 100 mg, read-out: Concentration
[2] = 100 mg, Patient 006 Dose 100 mg, read-out: Concentration
[3] = 100 mg, Patient 007 Dose 100 mg, read-out: Concentration
[4] = 200 mg, Patient 008 Dose 200 mg, read-out: Concentration
[5] = 200 mg, Patient 009 Dose 200 mg, read-out: Concentration

O=C(O)C(F)(F)C(F)(F)C(F)(F)C(F)(F)C(F)(F)C(F)(F)C(F)(F)F [CXR1002]
concentration at 360 h (100 mg, Patient 005 Dose 100 mg, 360 hr (Day 16), read-out: Concentration): 47.4 µM | concentration at 504 h (100 mg, Patient 005 Dose 100 mg, 504 hr (Day 22), read-out: Concentration): 48.4 µM | concentration at 506 h (100 mg, Patient 005 Dose 100 mg, 506 hr, read-out: Concentration): 84 µM | concentration at 507 h [1]: 74.4 µM | concentration at 508 h (100 mg, Patient 005 Dose 100 mg, 508 hr, read-out: Concentration): 87.4 µM | concentration at 528 h [1]: 57.9 µM | concentration at 672 h (100 mg, Patient 005 Dose 100 mg, 672 hr (Day 29), read-out: Concentration): 80.8 µM | concentration at 674 h (100 mg, Patient 005 Dose 100 mg, 674 hr, read-out: Concentration): 99.7 µM | concentration at 675 h (100 mg, Patient 005 Dose 100 mg, 675 hr, read-out: Concentration): 101 µM | concentration at 676 h [1]: 82.7 µM | concentration at 696 h [1]: 78.8 µM | concentration at 840 h [1]: 99.4 µM | concentration at 842 h (100 mg, Patient 005 Dose 100 mg, 842 hr, read-out: Concentration): 80 µM | concentration at 843 h (100 mg, Patient 005 Dose 100 mg, 843 hr, read-out: Concentration): 98.9 µM | concentration at 844 h (100 mg, Patient 005 Dose 100 mg, 844 hr, read-out: Concentration): 91.4 µM | concentration at 864 h (100 mg, Patient 005 Dose 100 mg, 864 hr (Day 37), read-out: Concentration): 109 µM | concentration at 92 day (100 mg, Patient 005 Dose 100 mg, Day 92): 276 µM | concentration at 0 h (100 mg, Patient 006 Dose 100 mg): 210 nM | concentration at 2 h [2]: 32.3 µM | concentration at 3 h [2]: 27.1 µM | concentration at 4 h (100 mg, Patient 006 Dose 100 mg, 4 hr, read-out: Concentration): 24.6 µM | concentration at 24 h (100 mg, Patient 006 Dose 100 mg, 24 hr (Day 2), read-out: Concentration): 28.2 µM | concentration at 168 h (100 mg, Patient 006 Dose 100 mg, 168 hr (Day 8), read-out: Concentration): 26.2 µM | concentration at 170 h [2]: 36.6 µM | concentration at 171 hr (100 mg, Patient 006 Dose 100 mg, 171 hr, read-out: Concentration): 41.1 µM | concentration at 172 hr (100 mg, Patient 006 Dose 100 mg, 172 hr, read-out: Concentration): 47.5 µM | concentration at 192 hr (100 mg, Patient 006 Dose 100 mg, 192 hr (Day 9), read-out: Concentration): 44.7 µM | concentration at 336 h (100 mg, Patient 006 Dose 100 mg, 336 hr (Day 15), read-out: Concentration): 33.1 µM | concentration at 338 h [2]: 49.5 µM | concentration at 339 h [2]: 55.9 µM | concentration at 360 h (100 mg, Patient 006 Dose 100 mg, 360 hr (Day 16), read-out: Concentration): 65.2 µM | concentration at 504 h (100 mg, Patient 006 Dose 100 mg, 504 hr (Day 22), read-out: Concentration): 70.5 µM | concentration at 506 h (100 mg, Patient 006 Dose 100 mg, 506 hr, read-out: Concentration): 76.4 µM | concentration at 507 hr [2]: 83.8 µM | concentration at 528 hr [2]: 97 µM | concentration at 672 h (100 mg, Patient 006 Dose 100 mg, 672 hr (Day 29), read-out: Concentration): 86.9 µM | concentration at 674 h (100 mg, Patient 006 Dose 100 mg, 674 hr, read-out: Concentration): 85.7 µM | concentration at 696 h [2]: 89.5 µM | concentration at 840 h [2]: 85.6 µM | concentration at 842 hr (100 mg, Patient 006 Dose 100 mg, 842 hr, read-out: Concentration): 179 µM | concentration at 843 hr (100 mg, Patient 006 Dose 100 mg, 843 hr, read-out: Concentration): 138 µM | concentration at 844 hr (100 mg, Patient 006 Dose 100 mg, 844 hr, read-out: Concentration): 138 µM | concentration at 864 hr (100 mg, Patient 006 Dose 100 mg, 864 hr (Day 37), read-out: Concentration): 123 µM | concentration at 0 hr (100 mg, Patient 007 Dose 100 mg): 0 nM | concentration at 2 hr [3]: 30.9 µM | concentration at 3 hr [3]: 28.6 µM | concentration at 4 hr (100 mg, Patient 007 Dose 100 mg, 4 hr, read-out: Concentration): 19.3 µM | concentration at 24 hr (100 mg, Patient 007 Dose 100 mg, 24 hr (Day 2), read-out: Concentration): 17.3 µM | concentration at 168 hr (100 mg, Patient 007 Dose 100 mg, 168 hr (Day 8), read-out: Concentration): 12.2 µM | concentration at 336 hr (100 mg, Patient 007 Dose 100 mg, 336 hr (Day 15), read-out: Concentration): 19.2 µM | concentration at 338 hr [3]: 52.8 µM | concentration at 339 hr [3]: 53.1 µM | concentration at 340 hr (100 mg, Patient 007 Dose 100 mg, 340 hr, read-out: Concentration): 55.8 µM | concentration at 360 hr (100 mg, Patient 007 Dose 100 mg, 360 hr (Day 16), read-out: Concentration): 32 µM | concentration at 504 hr (100 mg, Patient 007 Dose 100 mg, 504 hr (Day 22), read-out: Concentration): 39.7 µM | concentration at 506 hr (100 mg, Patient 007 Dose 100 mg, 506 hr, read-out: Concentration): 53.1 µM | concentration at 507 hr [3]: 65.8 µM | concentration at 508 hr (100 mg, Patient 007 Dose 100 mg, 508 hr, read-out: Concentration): 73 µM | concentration at 528 hr [3]: 63.4 µM | concentration at 0 hr (200 mg, Patient 008 Dose 200 mg): 0 nM | concentration at 2 hr [4]: 114 µM | concentration at 3 hr [4]: 102 µM | concentration at 4 h (200 mg, Patient 008 Dose 200 mg, 4 hr, read-out: Concentration): 81 µM | concentration at 24 h (200 mg, Patient 008 Dose 200 mg, 24 hr (Day 2), read-out: Concentration): 70.4 µM | concentration at 168 h (200 mg, Patient 008 Dose 200 mg, 168 hr (Day 8), read-out: Concentration): 64.6 µM | concentration at 170 h [4]: 171 µM | concentration at 171 h (200 mg, Patient 008 Dose 200 mg, 171 hr, read-out: Concentration): 143 µM | concentration at 172 h (200 mg, Patient 008 Dose 200 mg, 172 hr, read-out: Concentration): 130 µM | concentration at 192 h (200 mg, Patient 008 Dose 200 mg, 192 hr (Day 9), read-out: Concentration): 110 µM | concentration at 336 hr (200 mg, Patient 008 Dose 200 mg, 336 hr (Day 15), read-out: Concentration): 124 µM | concentration at 338 hr [4]: 147 µM | concentration at 339 hr [4]: 172 µM | concentration at 340 h (200 mg, Patient 008 Dose 200 mg, 340 hr, read-out: Concentration): 192 µM | concentration at 360 h (200 mg, Patient 008 Dose 200 mg, 360 hr (Day 16), read-out: Concentration): 211 µM | concentration at 504 h (200 mg, Patient 008 Dose 200 mg, 504 hr (Day 22), read-out: Concentration): 277 µM | concentration at 506 h (200 mg, Patient 008 Dose 200 mg, 506 hr, read-out: Concentration): 282 µM | concentration at 507 h [4]: 368 µM | concentration at 508 h (200 mg, Patient 008 Dose 200 mg, 508 hr, read-out: Concentration): 281 µM | concentration at 528 h [4]: 285 µM | concentration at 672 hr (200 mg, Patient 008 Dose 200 mg, 672 hr (Day 29), read-out: Concentration): 337 µM | concentration at 674 hr (200 mg, Patient 008 Dose 200 mg, 674 hr, read-out: Concentration): 356 µM | concentration at 675 hr (200 mg, Patient 008 Dose 200 mg, 675 hr, read-out: Concentration): 321 µM | concentration at 676 h [4]: 364 µM | concentration at 696 h [4]: 426 µM | concentration at 840 h [4]: 425 µM | concentration at 842 h (200 mg, Patient 008 Dose 200 mg, 842 hr, read-out: Concentration): 361 µM | concentration at 843 h (200 mg, Patient 008 Dose 200 mg, 843 hr, read-out: Concentration): 397 µM | concentration at 844 h (200 mg, Patient 008 Dose 200 mg, 844 hr, read-out: Concentration): 414 µM | concentration at 864 h (200 mg, Patient 008 Dose 200 mg, 864 hr (Day 37), read-out: Concentration): 354 µM | concentration at 0 h (200 mg, Patient 009 Dose 200 mg): 0 nM | concentration at 2 h [5]: 93.4 µM | concentration at 3 h [5]: 61.2 µM | concentration at 4 h (200 mg, Patient 009 Dose 200 mg, 4 hr, read-out: Concentration): 71.1 µM | concentration at 24 h (200 mg, Patient 009 Dose 200 mg, 24 hr (Day 2), read-out: Concentration): 64.6 µM | concentration at 168 h (200 mg, Patient 009 Dose 200 mg, 168 hr (Day 8), read-out: Concentration): 60.1 µM | concentration at 170 h [5]: 149 µM | concentration at 171 h (200 mg, Patient 009 Dose 200 mg, 171 hr, read-out: Concentration): 170 µM | concentration at 172 h (200 mg, Patient 009 Dose 200 mg, 172 hr, read-out: Concentration): 139 µM | concentration at 192 h (200 mg, Patient 009 Dose 200 mg, 192 hr (Day 9), read-out: Concentration): 136 µM | concentration at 338 h [5]: 161 µM | concentration at 339 h [5]: 167 µM | concentration at 340 h (200 mg, Patient 009 Dose 200 mg, 340 hr, read-out: Concentration): 153 µM | concentration at 360 h (200 mg, Patient 009 Dose 200 mg, 360 hr (Day 16), read-out: Concentration): 218 µM | concentration at 504 h (200 mg, Patient 009 Dose 200 mg, 504 hr (Day 22), read-out: Concentration): 253 µM | concentration at 506 h (200 mg, Patient 009 Dose 200 mg, 506 hr, read-out: Concentration): 285 µM | concentration at 507 h [5]: 296 µM | concentration at 508 h (200 mg, Patient 009 Dose 200 mg, 508 hr, read-out: Concentration): 362 µM | concentration at 528 h [5]: 242 µM | concentration at 672 h (200 mg, Patient 009 Dose 200 mg, 672 hr (Day 29), read-out: Concentration): 251 µM | concentration at 674 h (200 mg, Patient 009 Dose 200 mg, 674 hr, read-out: Concentration): 472 µM | concentration at 675 h (200 mg, Patient 009 Dose 200 mg, 675 hr, read-out: Concentration): 261 µM | concentration at 676 h [5]: 358 µM | concentration at 696 h [5]: 338 µM | concentration at 840 h [5]: 399 µM | concentration at 842 h (200 mg, Patient 009 Dose 200 mg, 842 hr, read-out: Concentration): 346 µM
